Experimental findings from patent US9981928B2, “Aryl sulfide derivatives and aryl sulfoxide derivatives as acaricides and insecticides” (BAYER CROPSCIENCE AKTIENGESELLSCHAFT, priority 2013, dated 2018) are described below.

Read-outs that look alike come from different tables or passages of the source.

This data set is described as follows: log P determination by HPLC on reversed-phase columns (C 18), analogously to OECD Guideline 117. Format: physicochemical. Particulars: for logP (HCOOH): LC-MS in the acidic range, pH 2.7, 0.1% aqueous formic acid / acetonitrile; for logP (HCOOH) / logP (neutral): HPLC reversed-phase C 18; for logP (neutral): LC-MS in the neutral range, pH 7.8, 0.001 molar aqueous ammonium hydrogencarbonate / acetonitrile. The method, then: The log P values were determined analogously to OECD Guideline 117 (EC Directive 92/69/EEC) by HPLC (high-performance liquid chromatography) using reversed-phase columns (C 18), by the following methods:
[a] The LC-MS determination in the acidic range was effected at pH 2.7 with 0.1% aqueous formic acid and acetonitrile (contains 0.1% formic acid) as eluents; linear gradient from 10% acetonitrile to 95% acetonitrile. log P^[a] is also referred to as log P(HCOOH). [b] LC-MS determination in the neutral range was effected at pH 7.8 with 0.001 molar aqueous ammonium hydrogencarbonate solution and acetonitrile as eluents; linear gradient from 10% acetonitrile to 95% acetonitrile. log P^[…] is also referred to as log P(neutral).

Where [1] appears, read: reversed-phase C18 HPLC column, acidic range, pH 2.7, 0.1% aqueous formic acid and acetonitrile, read-out: log P[a] / log P(HCOOH).
Setting [2] is: reversed-phase C18 HPLC column, neutral range, pH 7.8, 0.001 molar aqueous ammonium hydrogencarbonate and acetonitrile, read-out: log P[b] / log P(neutral).
[3] abbreviates: acidic range, pH 2.7, 0.1% aqueous formic acid and acetonitrile, read-out: log P[a] / log P(HCOOH).

Consider `OB(O)c1cc(SCC(F)(F)F)c(Cl)cc1Cl` [VIIIa-6, {2,4-Dichloro-5-[(2,2,2-trifluoroethyl)sulfanyl]phenyl}boronic acid], for which the chromatographic logP under setting [1] came out at 2.61 and the chromatographic logP under setting [2] is 2.52.

For the compound `Cc1cc(C)c(B2OC(C)(C)C(C)(C)O2)cc1SCC(F)(F)F` [2-{2,4-Dimethyl-5-[(2,2,2-trifluoroethyl)sulfanyl]phenyl}-4,4,5,5-tetramethyl-1,3,2-dioxaborolane], the chromatographic logP runs as follows: under setting [1], 5.75; under setting [2], 5.64.

`Cc1cc(C)c(B(O)O)cc1SCC(F)(F)F` [VIIIa-11, {2,4-Dimethyl-5-[(2,2,2-trifluoroethyl)sulfanyl]phenyl}boronic acid]: the chromatographic logP by setting is: under setting [1], 2.58; under setting [2], 2.57.

With `Cc1cc(F)c(N2C(=O)N(C)C(=O)C2(C)C)cc1[S+]([O-])CC(F)(F)F` (centres unmarked) [Example 216, 1-[2-Fluoro-4-methyl-5-(2,2,2-trifluoroethylsulfinyl)phenyl]-3,5,5-trimethylimidazolidine-2,4-dione], the chromatographic logP under setting [1] is 2.05.

`Cc1cc(F)c(NC(=S)NCC(F)(F)F)cc1SCC(F)(F)F` [1-{2-Fluoro-4-methyl-5-[(2,2,2-trifluoroethyl)sulfanyl]phenyl}-3-(2,2,2-trifluoroethyl)thiourea]: the chromatographic logP by setting is: under setting [1], 3.32; under setting [2], 3.24.

`Cc1cc(C)c([S+]([O-])CC(F)(F)F)cc1N1CCNC1=O` (centres unmarked) [Example 4, 1-{2,4-Dimethyl-5-[(2,2,2-trifluoroethyl)sulfinyl]phenyl}imidazolidin-2-one]: the chromatographic logP by setting is: under setting [1], 1.51; under setting [2], 1.52.

`[O-][S+](CC(F)(F)F)c1cc(B(O)O)c(Cl)cc1Cl` (centres unmarked) [VIIIb-6, {2,4-Dichloro-5-[(2,2,2-trifluoroethyl)sulfinyl]phenyl}boronic acid]: the chromatographic logP is, setting by setting: under setting [1], 1.86; under setting [2], 1.51.

In the case of `COc1ccc(B(O)O)cc1[S+]([O-])CC(F)(F)F` (centres unmarked) [VIIIb-8], the chromatographic logP under setting [1] worked out at 1.36 and the chromatographic logP under setting [2] came out at 1.37.

For the compound `Cc1cc(F)c(-n2c(=O)n(C)c(=O)n2C2C=CCCC2)cc1[S+]([O-])CC(F)(F)F` (centres unmarked) [Example 96], the “logP (HCOOH)” value amounted to 2.66 and the “logP (neutral)” value is given as 2.61.

Turning to `COc1ccc(B(O)O)cc1SCC(F)(F)F` [VIIIa-8, {4-Methoxy-3-[(2,2,2-trifluoroethyl)sulfanyl]phenyl}boronic acid], the chromatographic logP runs as follows: under setting [1], 1.94; under setting [2], 1.93.

With `CCC(C)n1[nH]c(=O)n(C2CC2)c1=O` (centres unmarked) [drawing 120 R1=CH(CH3)CH2CH3 R10=cyclopropyl, 1-sec-butyl-4-cyclopropyl-1,2,4-triazolidine-3,5-dione], under setting [1], the chromatographic logP was determined as 0.82.

As for `Cc1cc(F)c(-n2c(=O)n(C(C)C)c(=O)n2C(C)(C)C)cc1[S+]([O-])CC(F)(F)F` (racemic) [Example 152], the “logP (HCOOH)” value is on record as 3.40 and the “logP (neutral)” value is reported as 3.35.

Consider `Cn1[nH]c(=O)n(C(C)(C)C)c1=O` [drawing 120 R1=CH3 R10=C(CH3)3, 4-tert-butyl-1-methyl-1,2,4-triazolidine-3,5-dione], for which the chromatographic logP under setting [1] is 0.83.

Turning to `Cc1cc(F)c(NC(=O)OCCCl)cc1SCC(F)(F)F` [2-Chloroethyl N-[2-fluoro-4-methyl-5-(2,2,2-trifluoroethylsulfanyl)phenyl]carbamate], under setting [3], the chromatographic logP worked out at 3.45.

Regarding `CCn1[nH]c(=O)n(C(C)(C)C)c1=O` [drawing 120 R1=CH2CH3 R10=C(CH3)3, 4-tert-butyl-1-ethyl-1,2,4-triazolidine-3,5-dione], the chromatographic logP under setting [1] stood at 1.15.

In the case of `C=CCOc1n[nH]c(=O)n1C1CC1` [drawing 121 R1=CH2CH═CH2 R10=cyclopropyl, 5-(allyloxy)-4-cyclopropyl-2,4-dihydro-3H-1,2,4-triazol-3-one], the chromatographic logP is, setting by setting: under setting [1], 1; under setting [2], 1.03.

`Cc1cc(F)c(-n2c(=O)n(C(C)(C)C)c(=O)n2C)cc1[S+]([O-])CC(F)(F)F` (centres unmarked) [Example 95]: the “logP (HCOOH)” value is reported as 2.69 and the “logP (neutral)” value was found to be 2.65.

For the compound `Cc1cc(F)c(-n2c(=O)n(C(C)C)c(=O)n2CC(F)(F)F)cc1[S+]([O-])CC(F)(F)F` (racemic) [Example 153], the “logP (HCOOH)” value is 2.95 and the “logP (neutral)” value came to 3.04.

As to `O=[N+]([O-])c1ccc(Cl)c(SSc2cc([N+](=O)[O-])ccc2Cl)c1` [XIX-3, 1,1′-Disulfanediylbis(2-chloro-5-nitrobenzene)], the chromatographic logP by setting is: under setting [3], 3.31; (neutral range, pH 7.8, 0.001 molar aqueous ammonium hydrogencarbonate and acetonitrile, read-out: log P[b] / log P(neutral)) 3.35.

Regarding `CCn1c(=O)n(-c2cc([S+]([O-])CC(F)(F)F)c(C)cc2F)c(=O)n1CC` (centres unmarked) [Example 119, 1,2-Diethyl-4-{2-fluoro-4-methyl-5-[(2,2,2-trifluoroethyl)sulfinyl]phenyl}-1,2,4-triazolidine-3,5-dione], the chromatographic logP under setting [1] was 2.07.

For `Fc1cc(F)c(SCC(F)(F)F)cc1Br` [VIIa-15, 1-Bromo-2,4-difluoro-5-[(2,2,2-trifluoroethyl)sulfanyl]benzene], the chromatographic logP under setting [1] was 3.89 and the chromatographic logP under setting [2] worked out at 3.86.

Regarding `CC(C)n1c(=O)[nH]n(C)c1=O` [drawing 120 R1=CH3 R10=CH(CH3)2, 4-isopropyl-1-methyl-1,2,4-triazolidine-3,5-dione], under setting [1], the chromatographic logP worked out at 0.27.

For `Fc1cc(Br)c(SCC(F)(F)F)cc1Br` [VIIa-14, 1,4-Dibromo-2-fluoro-5-[(2,2,2-trifluoroethyl)sulfanyl]benzene], the chromatographic logP under setting [1] amounted to 4.39 and the chromatographic logP under setting [2] was found to be 4.36.

In the case of `C=CCOC(=O)Nc1cc(SCC(F)(F)F)c(C)cc1F` [Allyl N-[2-fluoro-4-methyl-5-(2,2,2-trifluoroethylsulfanyl)phenyl]carbamate], under setting [3], the chromatographic logP was determined as 3.59.

With `Cc1cc(F)c(-n2c(=O)[nH][nH]c2=O)cc1SCC(F)(F)F` [4-{2-Fluoro-4-methyl-5-[(2,2,2-trifluoroethyl)sulfanyl]phenyl}-1,2,4-triazolidine-3,5-dione], the chromatographic logP under setting [1] worked out at 1.82.

Take `Cc1cc(F)c(-n2c(=O)n(C3CC3)c(=O)n2C)cc1SCC(F)(F)F` [Example 128]: the “logP (HCOOH)” value worked out at 3.49 and the “logP (neutral)” value was 3.45.

Consider `COc1ccc(B2OC(C)(C)C(C)(C)O2)cc1SCC(F)(F)F` [2-{4-Methoxy-3-[(2,2,2-trifluoroethyl)sulfanyl]phenyl}-4,4,5,5-tetramethyl-1,3,2-dioxaborolane], for which the chromatographic logP is 4.54 under setting [1] and 4.46 under setting [2].

`Cc1cc(F)c(-n2c(=O)n(C(C)C)c(=O)n2CC(C)C)cc1SCC(F)(F)F` [Example 149]: the “logP (HCOOH)” value was found to be 4.27 and the “logP (neutral)” value is reported as 4.21.

Turning to `Cc1cc(F)c(N2C(=O)C(=O)N(C3CC3)C2=O)cc1SCC(F)(F)F` [Example 102], the “logP (HCOOH)” value was determined as 3.24.

As to `CC(C)n1[nH]c(=O)n(C2CC2)c1=O` [drawing 120 R1=CH(CH3)2 R10=cyclopropyl, 4-cyclopropyl-1-isopropyl-1,2,4-triazolidine-3,5-dione], the chromatographic logP under setting [1] was determined as 0.5.

Consider `C=CCn1c(OC)n[nH]c1=O` [drawing 121 R1=CH3 R10=CH2CH═CH2, 4-allyl-5-methoxy-2,4-dihydro-3H-1,2,4-triazol-3-one], for which the chromatographic logP was determined as 0.45 under setting [1] and 0.47 under setting [2].

In the case of `Cc1cc(F)c(-n2[nH]c(=O)n(-c3cccc(C(F)(F)F)c3)c2=O)cc1[S+]([O-])CC(F)(F)F` (racemic) [Example 158], the “logP (HCOOH)” value stood at 2.69 and the “logP (neutral)” value came out at 1.10.

Take `CCn1[nH]c(=O)n(-c2ccccc2)c1=O` [1-Ethyl-4-phenyl-1,2,4-triazolidine-3,5-dione]: the chromatographic logP under setting [1] was found to be 0.91.

On to `COc1n[nH]c(=O)n1C1CC1` [drawing 121 R1=CH3 R10=cyclopropyl, 4-cyclopropyl-5-methoxy-2,4-dihydro-3H-1,2,4-triazol-3-one], for which the chromatographic logP is 0.27 under setting [1] and 0.31 under setting [2].

Regarding `Cc1cc(F)c(NCC(C)O)cc1SCC(F)(F)F` (centres unmarked) [1-[2-Fluoro-4-methyl-5-(2,2,2-trifluoroethylsulfanyl)aniline]propan-2-ol], the chromatographic logP under setting [1] is 3.01.

As to `CCn1c(=O)n(CC(C)C)n(-c2cc(SCC(F)(F)F)c(C)cc2F)c1=O` [Example 148], the “logP (HCOOH)” value stood at 3.82 and the “logP (neutral)” value was 3.78.

With `CCOC(=O)NNC(=O)Nc1cc(SCC(F)(F)F)c(C)cc1F` [Ethyl 2-({2-fluoro-4-methyl-5-[(2,2,2-trifluoroethyl)sulfanyl]phenyl}carbamoyl)hydrazinecarboxylate], under setting [3], the chromatographic logP came to 2.41.

Consider `CC1(C)OB(c2cc(SCC(F)(F)F)c(Cl)cc2Cl)OC1(C)C` [2-{2,4-Dichloro-5-[(2,2,2-trifluoroethyl)sulfanyl]phenyl}-4,4,5,5-tetramethyl-1,3,2-dioxaborolane], for which the chromatographic logP amounted to 5.68 under setting [1] and 5.31 under setting [2].
